From patent US7053108B2, “Indoline compounds” (Les Laboratoires Servier, priority 2002, dated 2006)

Columns and labels:
Format in all cases: in vivo
[1] = Social interaction test in the rat; settings: 1 hour before the test, Sprague-Dawley rat, carrier 183 ± 7
Procedure: Social Interaction Test in the Rat
This test allows evaluation of the potential anxiolytic activity of the compounds. Male rats of the Sprague-Dawley strain (Charles River, Saint-Aubin-les-Elbeuf, France) weighing 240–260 g on arrival are isolated in individual cages for 5 days in dimly lit animal quarters (3–10 lux). The test is carried out on the final day and consists of placing the animals in pairs, matched by weight (±5 g), in a brightly lit enclosure (300 lux) for 10 minutes. The time spent by the animals in interacting with one another (grooming, chasing, . . . ) is measured. The compound or the carrier is administered to the animals 1 hour before the test, each couple receiving the same treatment. The anxiolytic effect of a compound is reflected by an increased duration of interaction compared to that of animals to whom the carrier has been administered.

5-HT2c receptors = target: T1, 5-HT2c receptors (Rattus norvegicus, UniProt P08909); test: Penile erection test following administration of Ro 60-0175 (1.25 mg/kg, s.c.) in the rat; settings: Wistar rat; for % inhibition of penile erections: Ro 60-0175 1.25 mg/kg s.c. 30 min later
T1 construct: from tissue; host or cells: whole living male Wistar rat (in vivo)
T1 sequence (P08909 33-460): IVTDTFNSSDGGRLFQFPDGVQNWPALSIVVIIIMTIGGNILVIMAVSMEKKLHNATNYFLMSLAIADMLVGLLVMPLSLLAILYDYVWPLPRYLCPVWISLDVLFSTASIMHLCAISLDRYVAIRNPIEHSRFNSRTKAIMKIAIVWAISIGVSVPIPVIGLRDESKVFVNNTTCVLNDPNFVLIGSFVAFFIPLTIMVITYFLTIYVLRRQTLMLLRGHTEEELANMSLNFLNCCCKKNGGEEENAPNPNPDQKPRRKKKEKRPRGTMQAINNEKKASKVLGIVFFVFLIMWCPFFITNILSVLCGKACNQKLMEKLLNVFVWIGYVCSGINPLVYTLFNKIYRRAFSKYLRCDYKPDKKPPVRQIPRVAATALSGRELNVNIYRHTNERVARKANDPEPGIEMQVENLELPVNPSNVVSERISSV
Procedure: Penile Erection Test Following Administration of Ro 60-0175 (1.25 mg/kg, s.c.) in the Rat
This test allows evaluation of the capacity of pharmacological agents to inhibit penile erections caused by administration of a selective 5-HT2c agonist, Ro 60-0175. Inhibition is therefore predictive of antagonist activity with respect to 5-HT2c receptors. Male rats of the Wistar strain (Iffa-Credo, L'Arbresle, France) weighing 120–140 g on the day of the experiment are placed separately in plexiglass observation boxes (7.5×18×30 cm) immediately after the compound or the carrier has been administered. Thirty minutes later, Ro 60-0175 (1.25 mg/kg, s.c.) is administered to the animals and the number of erections occurring during the next 30 minutes is counted.

[2] = system: extracellular concentrations of dopamine and noradrenaline in the frontal cortex; test: Measurement of the extracellular concentrations of dopamine and noradrenaline in the frontal cortex of the conscious rat (microdialysis); settings: 40.0 mg/kg p.o., 30 minutes post administration, frontal cortex dialysate
Procedure: Measurement of the Extracellular Concentrations of Dopamine and Noradrenaline in the Frontal Cortex of the Conscious Rat
Dialysis. The surgery is performed under pentobarbital-induced anaesthesia (60 mg/kg, i.p.). The rats are placed in a Kopf stereotaxic device and a cannula guide (CMA Microdialysis AB, Stockholm, Sweden) is implanted in the frontal cortex at the coordinates: anteroposterior: +2.2, lateral: ±0.6, ventral deviation: −0.2. The rats are placed in separate cages and recover from the anaesthesia over 5 days. […]
Chromatography. Dopamine (DA) and noradrenaline (NA) are simultaneously measured as follows: 20 μl of dialysate sample are diluted with 20 μl of mobile phase (75 mM NaH2PO4, 20 μM EDTA, 1 mM sodium decanesulphonate, 17.5% methanol, 0.01% triethylamine, pH: 5.70) and 33 μl are analysed by HPLC using, for separation, an inversephase column (Hypersil C18, 150×4.6 mm; particle size 5 μm) thermostatically controlled at 43° C. and, for quantification, a coulometric detector (ESA5014, Coulochem II, ESA, Chelmsford, USA). […]
The compound of Example 1 (40.0 mg/kg, p.o.) causes a substantial increase in the extracellular concentrations of DA and NA in the dialysates collected from the frontal cortex of conscious rats. The data are expressed as the mean ±S.E.M. The levels of DA and NA are expressed with respect to the mean values before administration of the drug. […]

Vogel conflict test = settings: 30 minutes before test, 3 minutes, Wistar rat, carrier 77.1 ± 14.7
Procedure: The test is carried out in a transparent plastics cage (32×25×30 cm) located in a soundproofed and ventilated enclosure. The cage has a chrome steel floor. The metal tip of the drink-containing bottle enters the cage at a height of 6 cm above the metal floor. The floor and the tip of the bottle are connected by electric cables to an “Anxiometer” apparatus (Columbus Instruments, Ohio, USA), which records the licks of the animal and controls the administration of electric shocks.
For the 4 days preceding the test, the rats (male Wistar rats weighing 250–270 g) (3 per cage) have access to drink for only one hour per day. On the day before the test, the animals are isolated in cages, on grills, without food or drink, immediately after their final hour of access to drink. The test takes place on the 5th day. On the day of the test, the animal is given by gavage (p.o.) either the solvent (suspension of distilled water+Tween 80) (control) or the compound, 30 minutes before being placed in the test cage. The session begins as soon as the animal has carried out 20 licks and has received a first electric shock (between the metal tip and metal floor), (constant current, 0.5 sec. duration, 0.3 mA intensity). Subsequently, the animal receives an electric shock each time it carries out 20 licks, for a period of 3 minutes. Animals not having performed the first 20 licks of the session by the end of 5 minutes are withdrawn from the test. The results are the numbers of licks performed by the animal during the 3 minutes of the test.

Question: Which “Duration of social interactions (s) mean ± s.e.m. (n)” value (“Duration of social interactions” below) ([1]; 0.16 mg/kg p.o.) does the source give for `O=C(Nc1cccnc1)N1CCc2c1ccc1ccccc21` [Example 1, N-(3-Pyridyl)-1,2-dihydro-3H-benzo[e]indole-3-carboxamide] here?
Answer: 187 ± 11 (5) s

Question: And the “Duration of social interactions” value ([1]; 0.63 mg/kg p.o., p < 0.05)?
Answer: 228 ± 11 (5) s

Question: And the “Duration of social interactions” value ([1]; 2.5 mg/kg p.o., p < 0.05)?
Answer: 242 ± 15 (5) s

Question: What about the “Duration of social interactions” value ([1]; 10.0 mg/kg p.o., p < 0.05) of the same compound?
Answer: 233 ± 10 (5) s

Question: And the “% inhibition of penile erections” value (5-HT2c receptors; 0.25 mg/kg p.o.)?
Answer: 12%

Question: What about the “% inhibition of penile erections” value (5-HT2c receptors; 0.63 mg/kg p.o.) of the same compound?
Answer: 16%

Question: And the “% inhibition of penile erections” value (5-HT2c receptors; 1.00 mg/kg p.o.)?
Answer: 50%

Question: And the “% inhibition of penile erections” value (5-HT2c receptors; 2.5 mg/kg p.o.)?
Answer: 88%

Question: And the “% inhibition of penile erections” value (5-HT2c receptors; 10.0 mg/kg p.o.)?
Answer: 100%

Question: And the ED50 (5-HT2c receptors; po, inhibition of Ro 60-0175-induced penile erections, p.o., read-out: ID50 (inhibitory dose50))?
Answer: 1.16 mg/kg

Question: And the “Extracellular DA level with respect to the mean values before administration (mean ±S.E.M.)” value ([2]; solvent = +3.9±9.8, in % (unit assumed))?
Answer: +95.0±12.9

Question: And the “Extracellular NA level with respect to the mean values before administration (mean ±S.E.M.)” value ([2]; solvent = +8.7±11.9, in % (unit assumed))?
Answer: +118.2±16.7

Question: What about the “Punished licks (1 shock/20 licks) Mean ± s.e.m. (n)” value (“Punished licks” below) (Vogel conflict test; 2.5 mg/kg p.o.) of the same compound?
Answer: 92.2 ± 20.7 (5)

Question: What about the “Punished licks” value (Vogel conflict test; 10.0 mg/kg p.o.) of the same compound?
Answer: 145.2 ± 46.3 (5)

Question: And the “Punished licks” value (Vogel conflict test; 40.0 mg/kg p.o., p < 0.05)?
Answer: 324.4 ± 70.7 (10)
